Source: paper PMC7996082, “The translocator protein ligands as mitochondrial functional modulators for the potential anti-Alzheimer agents” (Journal of Enzyme Inhibition and Medicinal Chemistry, 2021)

Columns and labels:
[1] = MTT assay: HT22 cell viability with compound alone; format: cell-based, mouse; details: mouse, HT22 cells; HT22 cell viability after 24 h of treatment with 5 μM compound, no Aβ
Description: To a clear 96-well plate (FALCON), the cultured HT-22 cells were seeded in a number of 5,000 per well 24 h prior to the assay. A solution of each test compound (5 µM, 25 µL) was added to each well. After 24 h of incubation at 37 °C, the cells were treated with a 10 µL of MTT solution (3–(4,5-dimethylthiazol-2-yl)-2,5-diphenyltetrazolium bromide, Sigma-Aldrich), incubated for 2 h at 37 °C, and were treated with 135 µL of MTT solubilising solution (10% Triton-X 100 in isopropanol with 0.1 M HCl) for 2 h at 37 °C. The % values of cell viability were determined by using the optical density (OD) values at 560 nm, and normalised by taking the vehicle control (5 µM of DMSO) as […].

[2] = biological target: T1, CYP3A4 (Homo sapiens, UniProt P08684); assay: CYP inhibition assay (Vivid CYP450 screening kit); format: in vitro ADME; details: 10 μM compound
T1 construct: purchased Invitrogen, Madison, WI, USA
Description: (§1) Human CYP450 (CYP1A2, 2D6, 2C9, 2C19, and 3A4) activities were determined by using the Vivid® CYP450 screening kit (Invitrogen, Madison, WI, USA) in a clear 96-well plate. Five positive controls were used as 10 mM solutions in MeCN for five different CYP450 enzymes: CYP1A2 (α-naphthoflavone), CYP2D6 (quinidine), CYP2C9 (sulfaphenazole), CYP2C19 (lansoprazole), and CYP3A4 (ketoconazole). Each sample (test compounds, positive inhibition controls, and solvent controls) was added into each well with the Master Pre-Mix [CYP450 BACULOSOMES® Reagent (recombinant human CYP450 isozyme and rabbit NADPHP450 reductase) and Regeneration System (3.3 mM glucose-6-phosphate and 0.3 U/ml glucose-6-phosphate dehydrogenase in 100 mM potassium phosphate, pH 8.0)]. The mixture was incubated for 5 min at 37 °C, and the Vivid® CYP substrates and 0.1 mM NADP^+ buffer were added to initiate the CYP450 enzyme reaction. The % remaining activities of CYP450 were measured after 20 min by using a fluorescent plate reader (Flexstation® 3, Molecular Devices, USA).

[3] = biological target: T2, CYP1A2 (Homo sapiens, UniProt P05177); assay: CYP inhibition assay (Vivid CYP450 screening kit); format: in vitro ADME; details: 10 μM compound
T2 construct: purchased Invitrogen, Madison, WI, USA
T2 sequence (P05177 2-516 limits assumed): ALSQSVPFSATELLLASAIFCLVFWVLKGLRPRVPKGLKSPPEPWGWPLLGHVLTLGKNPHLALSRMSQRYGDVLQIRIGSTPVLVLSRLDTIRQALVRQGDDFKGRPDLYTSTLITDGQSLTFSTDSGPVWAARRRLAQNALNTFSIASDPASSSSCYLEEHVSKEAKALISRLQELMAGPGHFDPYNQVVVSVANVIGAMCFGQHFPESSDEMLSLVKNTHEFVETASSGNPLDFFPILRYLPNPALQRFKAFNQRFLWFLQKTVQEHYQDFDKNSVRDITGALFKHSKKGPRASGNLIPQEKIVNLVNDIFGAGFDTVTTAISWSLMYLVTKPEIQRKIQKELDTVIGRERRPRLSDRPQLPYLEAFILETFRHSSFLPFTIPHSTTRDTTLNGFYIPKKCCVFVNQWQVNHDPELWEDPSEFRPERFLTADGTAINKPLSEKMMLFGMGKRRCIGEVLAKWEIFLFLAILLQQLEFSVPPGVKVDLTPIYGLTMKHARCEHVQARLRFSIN
Description: as §1

[4] = biological target: T3, CYP2C9 (Homo sapiens, UniProt P11712); assay: CYP inhibition assay (Vivid CYP450 screening kit); format: in vitro ADME; details: 10 μM compound
T3 construct: purchased Invitrogen, Madison, WI, USA
Description: as §1

[5] = biological target: T4, CYP2C19 (Homo sapiens, UniProt P33261); assay: CYP inhibition assay (Vivid CYP450 screening kit); format: in vitro ADME; details: 10 μM compound
T4 construct: purchased Invitrogen, Madison, WI, USA
Description: as §1

[6] = biological target: T5, CYP2D6 (Homo sapiens, UniProt P10635); assay: CYP inhibition assay (Vivid CYP450 screening kit); format: in vitro ADME; details: 10 μM compound
T5 construct: purchased Invitrogen, Madison, WI, USA
Description: as §1

[7] = biological target: T6, hERG channel (Homo sapiens, UniProt Q12809); assay: hERG inhibition assay (automated patch-clamp, CHO-K1 Tet-On hERG cells); format: cell-based; details: patch-clamp, ± SD
T6 construct: host or cells: CHO-K1 Tet-On hERG cells
Description: For automated patch-clamp NPC-16 Patchliner (Nanion Technologies, München, Germany) recordings, CHO-K1 Tet-On hERG cells (IonGate Biosciences GmbH, Frankfurt, Germany) were plated into 100-mm cell culture dishes. Whole-cell currents were recorded with the intracellular solution containing: 50 mM KCl, 60 mM KF, 10 mM NaCl, 2 mM MgCl2, 20 mM EGTA and 10 mM HEPES (pH 7.2), and with the extracellular solution containing: 140 mM NaCl, 4 mM KCl, 2 mM CaCl2, 1 mM MgCl2, 5 mM Glucose and 10 HEPES (pH 7.4). To assist stable seal formations, the seal enhancer containing: 80 mM NaCl, 3 mM KCl, 35 mM CaCl2, 10 mM MgCl2 and 10 mM HEPES (pH 7.4) was used only at the seal formation step. Prior to the whole-cell recordings, the external seal enhancing solution was exchanged to the extracellular solution described above. hERG channel currents were recorded using the parallel EPC-10 patch-clamp amplifiers (HEKA Elektronik, Lambrecht/Pfalz, Germany), and low-pass filtered (10 kHz) with a 4-pole Bessel filter. Cell suspension and patch solutions were automatically added onto the four recording wells in the microfabricated disposable chip (NPC-16 Chip, Nanion Technologies, München, Germany). To obtain the inhibitory constants, hERG tail currents were evoked by repolarizing steps to −50 mV for 500 ms preceded by a 500-ms depolarisation potential of +20 mV at a holding potential of −80 mV with a 20-s sweep interval. Whole-cell currents were acquired and digitised at 5 kHz using Patchmaster (HEKA Elektronik, Lambrecht/Pfalz, Germany). The extracellular solution was exchanged to the extracellular solution containing each blocker via four pipette tips of NPC-16 Patchliner using a 4-fold volume of solution (40 µL) with a speed of 4 µL/s, and the exchanged blocker solution was applied for 100–200 s to the patch-clamped cells until blocker binding had reached equilibrium by monitoring hERG tail currents. Whole-cell recordings were analysed using the Patchmaster/Fitmaster (HEKA Elektronik, Lambrecht/Pfalz, Germany), IGOR Pro (WaveMetrics Inc., Portland, OR, USA), and the GraphPad Prism 4.0 (GraphPad Software, Inc., La Jolla, CA, USA) software.

[8] = Liver microsomal stability; format: in vitro ADME; details: human, liver microsomes, 1 µM compound, 0.5 mg/mL microsomes, 30 min, 37 °C; read-out: Human Liver Microsomal Stability (% remaining after 30 min)
Description: Liver microsomes (human, dog, rat, and mouse; 0.5 mg/mL) were incubated with 1 µM of each test compound in the presence of potassium phosphate buffer (PPB) for 5 min at 37 °C. A solution of the NADPH regeneration system (#44332000, Oriental Yeast Co., Japan) was added to begin metabolic reactions of liver microsomes. The resulting mixtures were incubated for 30 min at 37 °C, and the reaction was terminated by the addition of a cold MeCN solution containing an internal standard (chlorpropamide). The mixture was separated by centrifugation (14,000 rpm for 5 min at 4 °C), and the supernatant was analysed by LC-MS/MS (Shimadzu Nexera XR system and TSQ vantage; Thermo Scientific).

T3 sequence (P11712 whole entry): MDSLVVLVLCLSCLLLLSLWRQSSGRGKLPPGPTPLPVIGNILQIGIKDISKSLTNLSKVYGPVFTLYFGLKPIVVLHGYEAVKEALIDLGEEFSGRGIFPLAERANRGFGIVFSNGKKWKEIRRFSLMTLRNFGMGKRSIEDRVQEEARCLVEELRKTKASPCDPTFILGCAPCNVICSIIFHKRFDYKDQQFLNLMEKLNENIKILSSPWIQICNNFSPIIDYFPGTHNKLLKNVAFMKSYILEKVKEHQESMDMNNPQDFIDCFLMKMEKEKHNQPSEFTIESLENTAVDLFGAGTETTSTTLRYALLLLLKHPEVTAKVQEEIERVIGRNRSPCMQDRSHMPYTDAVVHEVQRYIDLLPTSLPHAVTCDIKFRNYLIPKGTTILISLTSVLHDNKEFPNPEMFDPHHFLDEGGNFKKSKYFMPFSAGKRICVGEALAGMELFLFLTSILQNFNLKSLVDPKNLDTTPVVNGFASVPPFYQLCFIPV
T4 sequence (P33261 whole entry): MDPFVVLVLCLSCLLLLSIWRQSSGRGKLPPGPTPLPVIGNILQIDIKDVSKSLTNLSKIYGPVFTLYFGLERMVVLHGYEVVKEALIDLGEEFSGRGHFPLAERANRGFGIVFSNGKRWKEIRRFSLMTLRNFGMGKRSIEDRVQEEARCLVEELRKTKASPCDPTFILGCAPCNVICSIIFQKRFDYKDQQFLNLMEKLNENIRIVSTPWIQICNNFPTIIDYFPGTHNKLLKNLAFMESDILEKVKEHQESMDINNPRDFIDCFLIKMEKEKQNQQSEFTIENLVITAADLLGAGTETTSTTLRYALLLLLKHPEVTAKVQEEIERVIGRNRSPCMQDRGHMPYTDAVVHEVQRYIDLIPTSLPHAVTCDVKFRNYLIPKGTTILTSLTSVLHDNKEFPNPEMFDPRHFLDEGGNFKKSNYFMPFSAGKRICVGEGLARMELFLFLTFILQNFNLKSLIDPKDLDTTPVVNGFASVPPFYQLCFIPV
T5 sequence (P10635 whole entry): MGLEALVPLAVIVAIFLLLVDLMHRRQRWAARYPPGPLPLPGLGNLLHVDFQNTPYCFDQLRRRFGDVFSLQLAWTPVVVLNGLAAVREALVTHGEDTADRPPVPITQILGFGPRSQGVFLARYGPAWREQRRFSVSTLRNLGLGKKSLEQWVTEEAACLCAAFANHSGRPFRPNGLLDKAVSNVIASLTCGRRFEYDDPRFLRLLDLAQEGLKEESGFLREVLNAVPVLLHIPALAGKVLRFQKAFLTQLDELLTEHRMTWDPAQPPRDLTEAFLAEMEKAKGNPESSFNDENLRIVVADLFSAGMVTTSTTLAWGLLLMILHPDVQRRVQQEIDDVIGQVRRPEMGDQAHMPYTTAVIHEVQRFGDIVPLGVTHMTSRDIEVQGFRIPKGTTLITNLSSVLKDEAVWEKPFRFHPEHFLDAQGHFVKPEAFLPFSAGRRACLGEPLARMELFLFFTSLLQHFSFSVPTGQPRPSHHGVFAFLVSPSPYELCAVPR
T1 sequence (P08684 2-503 limits assumed): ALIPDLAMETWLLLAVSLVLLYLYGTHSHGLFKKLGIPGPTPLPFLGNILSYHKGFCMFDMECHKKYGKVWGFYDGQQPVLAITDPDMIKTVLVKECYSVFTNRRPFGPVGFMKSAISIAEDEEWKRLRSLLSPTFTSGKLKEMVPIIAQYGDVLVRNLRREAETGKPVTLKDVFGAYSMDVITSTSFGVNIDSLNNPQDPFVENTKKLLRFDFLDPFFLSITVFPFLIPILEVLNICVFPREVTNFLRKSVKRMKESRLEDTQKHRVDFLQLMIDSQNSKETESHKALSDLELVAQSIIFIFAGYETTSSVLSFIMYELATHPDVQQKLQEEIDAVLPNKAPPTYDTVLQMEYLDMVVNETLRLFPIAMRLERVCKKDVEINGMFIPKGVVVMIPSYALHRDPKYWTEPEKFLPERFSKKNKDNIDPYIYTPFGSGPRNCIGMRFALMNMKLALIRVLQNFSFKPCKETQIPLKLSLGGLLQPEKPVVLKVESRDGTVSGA
T6 sequence (Q12809 whole entry): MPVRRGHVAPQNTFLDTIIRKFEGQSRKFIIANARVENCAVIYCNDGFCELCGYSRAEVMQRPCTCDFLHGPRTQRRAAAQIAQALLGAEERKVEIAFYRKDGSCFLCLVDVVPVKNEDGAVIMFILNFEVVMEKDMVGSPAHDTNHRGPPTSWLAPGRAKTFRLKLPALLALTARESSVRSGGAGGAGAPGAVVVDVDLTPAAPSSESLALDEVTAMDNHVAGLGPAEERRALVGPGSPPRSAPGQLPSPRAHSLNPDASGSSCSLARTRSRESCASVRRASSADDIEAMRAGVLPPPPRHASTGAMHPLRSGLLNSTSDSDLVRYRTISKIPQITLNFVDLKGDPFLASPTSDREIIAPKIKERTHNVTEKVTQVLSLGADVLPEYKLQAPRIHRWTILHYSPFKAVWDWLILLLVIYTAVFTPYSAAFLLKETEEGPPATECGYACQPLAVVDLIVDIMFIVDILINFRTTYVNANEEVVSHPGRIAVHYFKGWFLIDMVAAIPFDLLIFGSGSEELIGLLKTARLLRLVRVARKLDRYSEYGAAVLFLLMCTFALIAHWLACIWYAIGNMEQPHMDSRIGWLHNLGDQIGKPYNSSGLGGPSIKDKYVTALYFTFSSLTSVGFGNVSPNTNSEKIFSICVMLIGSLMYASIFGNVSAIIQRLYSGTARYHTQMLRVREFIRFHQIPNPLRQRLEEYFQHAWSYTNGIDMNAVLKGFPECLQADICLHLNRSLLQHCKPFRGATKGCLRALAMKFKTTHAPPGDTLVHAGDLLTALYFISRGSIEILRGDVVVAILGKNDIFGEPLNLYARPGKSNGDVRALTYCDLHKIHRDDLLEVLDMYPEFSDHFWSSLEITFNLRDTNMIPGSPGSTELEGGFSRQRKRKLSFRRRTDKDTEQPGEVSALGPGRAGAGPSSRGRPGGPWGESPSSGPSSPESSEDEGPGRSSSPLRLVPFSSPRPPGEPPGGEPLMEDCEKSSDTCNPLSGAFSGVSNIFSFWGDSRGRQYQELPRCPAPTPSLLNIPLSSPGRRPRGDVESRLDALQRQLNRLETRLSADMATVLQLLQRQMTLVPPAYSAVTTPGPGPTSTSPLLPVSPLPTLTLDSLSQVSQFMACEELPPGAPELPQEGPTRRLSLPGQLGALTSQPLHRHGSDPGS

Row | Structure (SMILES) | viability at 24 h, 5 µM [1] [%] | CYP450 (% remaining Activity at 10 μM) CYP3A4 [2] [%] | CYP450 (% remaining Activity at 10 μM) CYP1A2 [3] [%] | CYP450 (% remaining Activity at 10 μM) CYP2C9 [4] [%] | CYP450 (% remaining Activity at 10 μM) CYP2C19 [5] [%] | CYP450 (% remaining Activity at 10 μM) CYP2D6 [6] [%] | IC50 [7] [µM] | remaining at 0.5 h, 1 µM [8] [%]
1 | CCCCN(CCCC)C(=O)CSc1nc2sc3c(c2c(=O)n1-c1ccc(OCC)cc1)CCN(C)C3 [Compound 57] | 110 |  |  |  |  |  |  | 
2 | CCn1c(SCC(=O)Nc2ccc(OC)c(OC)c2)nc2sc3c(c2c1=O)CCN(C(C)=O)C3 [Compound 58] | 99 |  |  |  |  |  |  | 
3 | CCOc1ccc(-n2c(SCC(=O)NCCN3CCCCC3)nc3sc4c(c3c2=O)CCN(C(C)=O)C4)cc1 [Compound 28] | 71 |  |  |  |  |  |  | 
4 | CCOc1ccc(-n2c(SCC(=O)Nc3ccc(C)cc3)nc3sc4c(c3c2=O)CCN(C)C4)cc1 [Compound 55] | 127 | 23.0 | 69.2 | 43.0 | 31.2 | 59.2 | 5.63 ± 1.75 | 49.1
5 | CCCCn1c(SCC(=O)Nc2ccc(OC)c(OC)c2)nc2sc3c(c2c1=O)CCN(C(C)=O)C3 [Compound 61] | 97 |  |  |  |  |  |  | 
6 | CCOc1ccc(-n2c(SCC(=O)N(CC)CC)nc3sc4c(c3c2=O)CCN(C(C)=O)C4)cc1 [Compound 38] | 77 |  |  |  |  |  |  | 
7 | CCOc1ccc(-n2c(SCC(=O)N3CCN(Cc4ccccc4)CC3)nc3sc4c(c3c2=O)CCN(C(C)=O)C4)cc1 [Compound 45] | 113 | 89.1 | 110.5 | 14.9 | 23.2 | 107.0 |  | 4.3
8 | COc1ccc(NC(=O)CSc2nc3sc4c(c3c(=O)n2C(C)C)CCN(C(C)=O)C4)cc1OC [Compound 62] | 94 |  |  |  |  |  |  | 
9 | CCOc1ccc(-n2c(SCC(=O)Nc3ccc(OC)c(OC)c3)nc3sc4c(c3c2=O)CCN(C)C4)cc1 [Compound 48] | 106 | 20.7 | 35.8 | 33.7 | 20.3 | 57.8 |  | 63.4
10 | CCCN(CCC)C(=O)CSc1nc2sc3c(c2c(=O)n1-c1ccc(OCC)cc1)CCN(C(C)=O)C3 [Compound 39] | 99 | 51.8 | 143.1 | 61.0 | 64.0 | 95.1 | 5.87 ± 1.18 | 
